# Assay results from patent US12000825B2, “Method of selecting stem cells having ability to produce extracellular vesicles with high efficiency using activation of protease-activated receptor-mediated signaling pathways” (SAMSUNG LIFE PUBLIC WELFARE FOUNDATION, priority 2019, dated 2024).
# Entries after “also recorded” stand apart in the source; their conditions may differ.
# Columns and labels:
# [1] = system: Human umbilical cord blood-derived mesenchymal stem cells (MSCs); test: Bioplex assay / ELISA of proteins in EVs (VEGF, angiogenin, angiopoietin-1, HGF); assay type: cell-based
# Description: (§1) To pretreat the umbilical cord blood-derived mesenchymal stem cells with thrombin, first, the mesenchymal stem cells were cultured in α-MEM (Gibco, Grand Island, NY, USA) supplemented with 10% (v/v) fetal bovine serum (FBS, Gibco), 100 units/mL penicillin, and 100 μg/mL streptomycin (Invitrogen, Carlsbad, CA, USA) under standard culture conditions. When the cells reached approximately 90% confluency in a culture plate, the cells were washed three times with phosphate buffered saline (PBS) to remove contaminated FBS-derived exosomes, and were then incubated in new serum-free α-MEM supplemented with human recombinant thrombin (1 U/mL, 2 U/mL, and 4 U/mL; Sigma-Aldrich, St. Louis, MO, USA) for 6 hours. After the medium was collected, about 2×10^6 cells per 100 mm culture dish was counted using a Luna-FL™ system (Logos Biosystems, Anyang-si, Korea).
# To analyze the cytokine levels of EVs by ELISA, an experiment was conducted using the following method. Specifically, a homogenate of isolated EVs was added to a well containing 0.1 mL of lysis buffer in an ELISA kit. Subsequently, proteins in EVs were quantified using the Bradford method, and then 1 μg of protein was loaded into each well. Thereafter, the levels of angiogenin, angiopoietin-1, VEGF, and HGF, which are present in EVs, were quantified using the Fluorokine® MAP Human Angiogenesis Custom Premix Kit A (R & D Systems, Minneapolis, MN, USA).
# [2] = system: Human umbilical cord blood-derived mesenchymal stem cells (MSCs); test: Early endosome labeling (CellLight Early Endosomes-GFP); assay type: cell-based
# Description: Early endosomes were labeled using CellLight® reagent-green fluorescent protein (GFP), BacMam 2.0 (Thermo Fisher Scientific, San Jose, CA, USA) according to the manufacturer's instructions. Briefly, mesenchymal stem cells were dispensed in a 12-well plate at a density of 1.5×10^4 per well, and after cells were attached, BacMam 2.0 reagent was added at a concentration of 40 particles per cell (PPC). Next, to measure Rab5α-GFP expression, early endosomes were labeled using CellLight® early endosomes-GFP, BacMam 2.0. Thereafter, to estimate the number of GFP-labeled endosomes, the optical density of green immunofluorescence was measured using ImageJ (National Institutes of Health, Bethesda, MD, USA).
# Rab-5 and EEA-1 = test: Immunoblot of early endosome markers; assay type: cell-based, human
# Description: (§2) Umbilical cord blood-derived mesenchymal stem cells and EVs were lysed by adding an equal volume of RIPA buffer (Sigma-Aldrich, St. Louis, MO, USA). The protein contents of the lysates were quantified using the Bradford method, and samples containing 10 μg of proteins were mixed with loading buffer containing β-mercaptoethanol, boiled for 10 minutes, and separated according to size by 12% SDS-polyacrylamide gel electrophoresis (SDS-PAGE). Subsequently, the separated proteins were transferred to nitrocellulose membranes, and then a 5% bovine serum albumin (BSA) solution was prepared with 0.5% Tween-20-containing 1×PBS-T, the membranes were blocked therewith at room temperature, followed by treatment with primary antibodies and incubation at room temperature for 1 hour. After incubation, the membranes were washed with 1×PBS-T, followed by incubation with anti-mouse or anti-rabbit horseradish peroxidase-conjugated immunoglobulin G (1:2000) secondary antibodies while being stirred at room temperature for 1 hour. Subsequently, after washing with PBS-T, protein bands were detected using an ECL Select chemiluminescence reagent (GE Healthcare Life Sciences, Piscataway, NJ, USA), and band images were acquired with X-ray films.
# [3] = system: Human umbilical cord blood-derived mesenchymal stem cells (MSCs); test: Isolation and quantification of extracellular vesicles (NanoSight); assay type: cell-based; details: for production of EVs: 6 hours, FIG. 1A
# Description: as §1
# To isolate extracellular vesicles (hereinafter, referred to as EVs) secreted by the umbilical cord blood-derived mesenchymal stem cells pretreated with thrombin according to the method of Example 1-1, an experiment was conducted according to the following processes. Specifically, the above recovered medium was centrifuged at 3,000 rpm and 4° C. for 30 minutes to remove cell debris, and then centrifuged at 100,000 rpm and 4° C. for 120 minutes to precipitate EVs. Then, the precipitated pellet was washed twice, re-suspended in sterile PBS, and stored at −80° C. until use.
# The distribution of EVs was analyzed by measuring the rate of Brownian motion using NanoSight (NanoSight NS300; Malvern, Worcestershire, UK), which is equipped with fast video capture and particle-tracking software. The obtained EVs were re-suspended in PBS (500 μl, 1 mg/mL total protein), and size and polydispersity thereof were measured. In addition, to quantify the production of EVs by a single cell, cells were counted using a LUNA-FL system according to the manufacturer's protocol using the medium recovered above. The number of EVs produced by a single cell was calculated by dividing the total number of EVs by the number of cells.
# [4] = system: ERK1/2 and AKT signaling pathways; test: Immunoblot of ERK1/2 and AKT phosphorylation; assay type: cell-based, human
# Description: as §2
# [5] = system: Human umbilical cord blood-derived mesenchymal stem cells (MSCs); test: Observation of EVs by SEM and TEM; assay type: cell-based; details: thrombin-pretreated vs not treated, FIG. 1D
# Description: EVs (5 μl) were fixed with 2% glutaraldehyde, loaded on 200-mesh formvar/carbon-coated electron microscopy grids (Electron Microscopy Sciences, Washington, PA, USA), and incubated for 10 minutes. Subsequently, the EVs were washed with filtered distilled water and stained with 2% uranyl acetate in water for 1 minute. Thereafter, the stained EVs were observed using a Tecnai Spirit G2 transmission electron microscope (FEI, Hillsboro, OR, USA) operating at 120 kV, and then an image thereof was acquired.
# Meanwhile, to observe isolated EVs using a scanning electron microscope, EVs were fixed in 2.5% glutaraldehyde and loaded on a polycarbonate membrane. Next, the membrane was washed once with PBS and water and then dehydrated with acetone. Subsequently, the acetone was removed by critical point drying using liquid carbon dioxide. Samples were mounted on aluminum stubs with carbon tape and mounted on an SEM stub. After sputter coating with 3-5 nm platinum, the samples were observed using a scanning electron microscope (Zeiss Auriga Workstation, Oberkochen, Germany) and images thereof were acquired.
# [6] = compared to no thrombin, in proportion to thrombin concentration
molecule,measurement,setting,value
"CC(C)c1ccc(Cn2ccc3c4c(N)nc(NC5CC5)nc4ccc32)cc1.Cl.Cl [SCH79797, N3-cyclopropyl-7-[[4-(1-methylethyl)phenyl]methyl]-7H-pyrrolo[3,2-f]quinazolin-1,3-diamine dihydrochloride, reference compound]","increase in the levels of proteins in EVs, comparison","[1]; compared to transfection with PAR3 siRNA, FIG. 5D",inhibited at a higher level
same,"increase in the levels of VEGF, angiogenin, angiopoietin-1 and HGF in EVs","[1]; thrombin-pretreated MSCs, SCH79797 1 μM, FIG. 5D",significantly inhibited
same,"increase in the number of early endosomes by thrombin, comparison","[2]; compared to transfection with PAR3 siRNA, FIG. 5A",more significantly inhibited
same,increase in the number of early endosomes by thrombin treatment,"[2]; thrombin-pretreated MSCs, SCH79797 1 μM, FIG. 5A",significantly inhibited
same,"expression levels of Rab-5 and EEA-1, comparison","Rab-5 and EEA-1; thrombin-pretreated MSCs, compared to the PAR3 siRNA-treated group, FIG. 4A",further reduced
same,expression levels of Rab-5 and EEA-1,"Rab-5 and EEA-1; thrombin-pretreated MSCs, compared to thrombin alone, SCH79797 1 μM, FIG. 4A",significantly reduced
same,"increase in the number of extracellular vesicles by thrombin, comparison","[3]; compared to transfection with PAR3 siRNA, FIGS. 5B and 5C",inhibited at a higher level
same,increase in the number of extracellular vesicles by thrombin treatment,"[3]; thrombin-pretreated MSC culture media, SCH79797 1 μM, FIGS. 5B and 5C",significantly inhibited
same,"increase in phosphorylation of ERK1/2 and AKT by thrombin, comparison","[4]; compared to PAR-3-specific siRNA treatment, FIG. 4B",inhibited at a more significant level
same,increase in phosphorylation of ERK1/2 and AKT by thrombin pretreatment,"[4]; thrombin-pretreated MSCs, SCH79797 1 μM, FIG. 4B",significantly inhibited
thrombin,"levels of proteins in extracellular vesicles, increase",[1]; [6],≥ 2 fold
same,"levels of VEGF, angiogenin, angiopoietin-1 and HGF in EVs","[1]; thrombin 2 U/mL and 4 U/mL vs not treated, FIG. 1B",significantly increased
same,level of early endosomes,"[2]; thrombin-pretreated vs naive, FIG. 1C",significantly increased; also recorded: significantly high level
same,expression levels of early endosome markers Rab-5 and EEA-1,"Rab-5 and EEA-1; thrombin treatment vs none, FIG. 3A",significantly increased
same,EVs observed by SEM/TEM,[5],more EVs were observed
same,"amount of produced extracellular vesicles, increase",[3]; [6],≥ 5 fold
same,production of EVs,[3]; thrombin 1-4 U/mL,increased in a thrombin concentration-dependent manner
same,production of EVs,[3]; thrombin 2 U/mL and 4 U/mL,significantly increased
same,number of isolated EVs,"[3]; thrombin-pretreated vs not treated, FIG. 1E",greater number
same,expression of non-phosphorylated ERK1/2 and AKT,"[4]; thrombin treatment, not statistically significant, FIG. 3B",tended to increase slightly
same,expression of pERK1/2 and pAKT (phosphorylation of ERK1/2 and AKT),"[4]; thrombin-pretreated vs not treated, FIG. 3B",significantly increased
